Assay results: ChEMBL document CHEMBL3407354, “Recent advances in the development of acetyl-CoA carboxylase (ACC) inhibitors for the treatment of metabolic disease” (J Med Chem, 2015)
One block for each molecule: values may come before it.

What was measured:
[1] = Intrinsic clearance in human microsomes; type: ADME
Acetyl-CoA carboxylase 1 [2] = target: Acetyl-CoA carboxylase 1 (Rattus norvegicus, UniProt P11497); assay: Inhibition of rat recombinant ACC1
[3] = Lipophilicity, log D of the compound; type: physicochemical; settings: octanol/water
Acetyl-CoA carboxylase 2 [4] = target: T1, Acetyl-CoA carboxylase 2 (Homo sapiens, UniProt O00763); assay: Inhibition of human ACC2 assessed as malonyl CoA formation by NADH-linked kinetic method
Acetyl-CoA carboxylase 1 [5] = target: Acetyl-CoA carboxylase 1 (Homo sapiens, UniProt Q13085); assay: In vitro inhibition of human recombinant His-tagged ACC1 assessed as malonyl-CoA level
HepG2 = assay: Inhibition of fatty acid synthesis in human HepG2 cells; type: functional, cell-based
Rattus norvegicus = species on record: Rattus norvegicus; assay: Reduction in fatty acid synthesis in Sprague-Dawley rat; type: functional
Acetyl-CoA carboxylase 2 [6] = target: T1, Acetyl-CoA carboxylase 2; assay: In vitro inhibition of human recombinant His-tagged ACC2 assessed as malonyl-CoA level

T1 sequence (O00763 whole entry): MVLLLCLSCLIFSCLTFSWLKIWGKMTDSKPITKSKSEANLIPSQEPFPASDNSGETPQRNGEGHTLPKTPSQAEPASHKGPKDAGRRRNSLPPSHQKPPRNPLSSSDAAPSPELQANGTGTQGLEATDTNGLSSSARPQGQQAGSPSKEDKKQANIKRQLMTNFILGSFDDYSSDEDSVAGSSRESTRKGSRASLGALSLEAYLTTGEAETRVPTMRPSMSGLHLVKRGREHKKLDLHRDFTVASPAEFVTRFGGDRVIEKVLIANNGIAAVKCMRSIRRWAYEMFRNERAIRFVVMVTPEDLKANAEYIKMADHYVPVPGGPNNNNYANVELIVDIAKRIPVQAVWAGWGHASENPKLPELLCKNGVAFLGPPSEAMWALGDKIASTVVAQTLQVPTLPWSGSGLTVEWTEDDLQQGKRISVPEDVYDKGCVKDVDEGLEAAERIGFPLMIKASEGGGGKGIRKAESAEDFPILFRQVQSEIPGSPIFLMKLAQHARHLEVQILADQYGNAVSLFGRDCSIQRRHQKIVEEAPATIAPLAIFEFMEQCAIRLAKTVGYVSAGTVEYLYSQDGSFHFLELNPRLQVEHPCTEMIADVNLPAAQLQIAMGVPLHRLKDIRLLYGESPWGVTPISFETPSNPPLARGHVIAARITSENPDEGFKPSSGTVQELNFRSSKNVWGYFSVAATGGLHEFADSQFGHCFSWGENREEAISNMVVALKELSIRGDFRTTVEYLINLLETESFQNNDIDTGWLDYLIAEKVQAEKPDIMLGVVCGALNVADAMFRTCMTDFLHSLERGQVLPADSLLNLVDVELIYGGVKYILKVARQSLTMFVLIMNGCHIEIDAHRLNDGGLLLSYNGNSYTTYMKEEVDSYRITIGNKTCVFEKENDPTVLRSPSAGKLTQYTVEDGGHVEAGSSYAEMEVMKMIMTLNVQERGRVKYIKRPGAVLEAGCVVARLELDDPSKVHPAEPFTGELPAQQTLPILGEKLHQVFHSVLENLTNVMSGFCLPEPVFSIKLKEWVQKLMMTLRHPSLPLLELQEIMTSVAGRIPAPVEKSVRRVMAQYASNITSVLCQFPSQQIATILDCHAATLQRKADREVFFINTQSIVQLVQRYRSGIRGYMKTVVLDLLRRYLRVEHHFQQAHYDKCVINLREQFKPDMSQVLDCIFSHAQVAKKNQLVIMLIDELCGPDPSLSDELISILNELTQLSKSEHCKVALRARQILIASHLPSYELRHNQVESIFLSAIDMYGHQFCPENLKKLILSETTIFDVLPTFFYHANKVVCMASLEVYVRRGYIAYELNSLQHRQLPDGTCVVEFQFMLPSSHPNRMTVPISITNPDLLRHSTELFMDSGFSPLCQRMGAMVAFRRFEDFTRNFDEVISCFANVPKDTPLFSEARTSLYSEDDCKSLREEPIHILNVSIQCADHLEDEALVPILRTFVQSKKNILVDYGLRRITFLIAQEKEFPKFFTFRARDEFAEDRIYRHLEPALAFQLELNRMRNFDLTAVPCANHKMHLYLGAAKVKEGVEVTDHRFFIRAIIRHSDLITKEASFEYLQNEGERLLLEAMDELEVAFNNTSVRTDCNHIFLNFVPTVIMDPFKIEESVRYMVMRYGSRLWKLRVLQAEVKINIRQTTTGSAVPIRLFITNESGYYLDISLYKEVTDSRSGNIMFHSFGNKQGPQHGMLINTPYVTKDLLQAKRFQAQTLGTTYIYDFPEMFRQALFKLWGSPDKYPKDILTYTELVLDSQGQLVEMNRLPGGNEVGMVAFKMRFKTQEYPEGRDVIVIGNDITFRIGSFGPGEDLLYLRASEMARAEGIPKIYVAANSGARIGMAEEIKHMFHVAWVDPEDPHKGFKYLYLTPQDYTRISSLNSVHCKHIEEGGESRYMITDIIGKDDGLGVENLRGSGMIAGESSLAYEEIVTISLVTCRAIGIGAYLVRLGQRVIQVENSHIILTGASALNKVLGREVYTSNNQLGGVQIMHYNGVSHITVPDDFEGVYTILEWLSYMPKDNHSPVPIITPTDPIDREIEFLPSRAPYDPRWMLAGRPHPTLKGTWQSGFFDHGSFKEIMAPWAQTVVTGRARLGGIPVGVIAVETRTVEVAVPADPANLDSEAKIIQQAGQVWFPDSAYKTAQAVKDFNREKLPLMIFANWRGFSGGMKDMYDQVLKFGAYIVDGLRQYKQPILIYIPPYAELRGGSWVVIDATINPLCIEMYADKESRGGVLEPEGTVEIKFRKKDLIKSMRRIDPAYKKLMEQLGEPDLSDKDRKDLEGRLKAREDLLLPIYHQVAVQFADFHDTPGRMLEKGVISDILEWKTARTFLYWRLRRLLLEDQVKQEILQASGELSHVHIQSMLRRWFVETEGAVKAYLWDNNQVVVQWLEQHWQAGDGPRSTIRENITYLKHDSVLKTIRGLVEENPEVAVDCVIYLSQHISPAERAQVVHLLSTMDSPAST

CLint scaled [1]: 86 mL/min/kg
IC50 (Acetyl-CoA carboxylase 1 [2]): 25 nM
Compound: Cc1cc2c(cc1C)C(=O)CC1(CCN(C(=O)c3cc(C)c4[nH]ncc4c3)CC1)O2

logD [3]: 1.8
CLint scaled [1]: ≤ 8 mL/min/kg
Compound: CC(C)(C)n1cc2c(n1)C(=O)CC1(CCN(C(=O)c3ccc4[nH]ncc4c3)CC1)O2

logD [3]: 5.9
Compound: CC(C)(C)OC(=O)CC[C@H]1CC[C@H](CNC(=O)c2cc(-c3ccccc3)nc3ccccc23)CC1

IC50 (Acetyl-CoA carboxylase 2 [4]): 50 nM
Compound: CCOc1ccc(N2CC(Oc3ccc([C@H](C)NC(=O)c4cn[nH]c4)cc3)C2)c(C)c1

IC50 (Acetyl-CoA carboxylase 1 [5]): 23000 nM
Compound: CCOC(=O)N1CCN(c2nc(C)nc3sc4c(c23)CCCC4)CC1

IC50 (HepG2): < 100 nM
Compound: COc1ccccc1[C@@H](Cn1c(=O)n(C(C)(C)C(=O)O)c(=O)c2c(C)c(-c3ncco3)sc21)OC(C)C

IC50 (Acetyl-CoA carboxylase 2 [4]): 60 nM
Compound: CCCOc1ccc(C2CCN(c3ccc(C(C)NC(C)=O)cc3F)CC2)c(C)c1 (racemic)

IC50 (Acetyl-CoA carboxylase 2 [4]): 80 nM
Compound: Cc1cc(OCC2CC2)ccc1C1CCN(c2ccc(C(C)C(=O)NC3CC3)cc2)CC1 (racemic)

IC50 (Acetyl-CoA carboxylase 1 [5]): 2.6 nM
IC50 (HepG2): < 100 nM
IC50 (Acetyl-CoA carboxylase 2 [6]): 1.7 nM
Compound: COc1ccccc1[C@H](Cn1c(=O)n(C(C)(C)C(=O)O)c(=O)c2c(C)c(-c3ncco3)sc21)OC1CCOCC1 [FIRSOCOSTAT]
ED50 (Rattus norvegicus): < 0.3 mg/kg
